Test results taken from US10100341B2, “Tailored oils produced from recombinant oleaginous microorganisms” (Corbion Biotech, Inc., priority 2011, dated 2018).

Columns and labels:
Prototheca moriformis = experiment: Growth in thiamine-free medium (thiamine auxotrophy complementation); assay type: cell-based; settings: 2 μM precursor
Procedure: Thiamine prototrophy in Prototheca moriformis cells was examined using expression of exogenous THIC genes. […] To dissect the lesion responsible for thiamine auxotrophy at the biochemical level, the growth of Prototheca moriformis cells under five different regimes were examined:(1) in the presence of 2 μM thiamine hydrochloride; (2) without thiamine; (3) without thiamine, but with 2 μM hydroxyethyl thiazole (THZ); […] To observe the thiamine auxotrophy of wildtype Prototheca moriformis cells, it was necessary to first deplete cells of internal thiamine reserves. To test growth in medium without thiamine, cells were first grown to stationary phase in medium containing 2 μM thiamine and then the cells were diluted to an optical density at 750 nm (OD750) of approximately 0.05 in medium without thiamine. The diluted cells were then grown once more to stationary phase in medium without thiamine (about 2-3 days). These thiamine-depleted cells were used to inoculate cultures for growth studies in medium without thiamine Wildtype cells were grown in medium with glucose as the carbon source (with or without thiamine) and positive clones with the native transit peptide Coccomyxa C-169 THIC construct were grown in medium with sucrose as the sole carbon source. […]

Dunaliella salina = settings: 60 mg/L chloramphenicol; cited from earlier work
Haematococcus pluvialis = settings: 5 μM norflurazon; cited from earlier work
Gonium pectorale = settings: 0.06 ug/ml paromomycin; cited from earlier work
Dunaliella tertiolecta = settings: 1 mg/L phleomycin; cited from earlier work
[1] = test system: Closterium peracerosum-strigosum-littorale complex; settings: 3 ug/ml phleomycin; cited from earlier work
[2] = test system: Prototheca moriformis (UTEX 1435); experiment: cDNA abundance by real-time RT-PCR under nitrogen depletion; assay type: cell-based; settings: after 24 hours of culture in low nitrogen medium
Procedure: A cDNA library was generated from Prototheca moriformis (UTEX 1435) using standard techniques. The Prototheca moriformis cells were grown for 48 hours under nitrogen replete conditions. […] After about 24 hours in culture, the nitrogen supply in the media was completely depleted. The collected samples were immediately frozen using dry ice and isopropanol. Total RNA was subsequently isolated from the frozen cell pellet samples and a portion from each sample was held in reserve for RT-PCR studies. The rest of the total RNA harvested from the samples was subjected to polyA selection. Equimolar amounts of polyA selected RNA from each condition was then pooled and used to generate a cDNA library in vector pcDNA 3.0 (Invitrogen). Roughly 1200 clones were randomly picked from the resulting pooled cDNA library and subjected to sequencing on both strands. Approximately 68 different cDNAs were selected from among these 1200 sequences and used to design cDNA-specific primers for use in real-time RT-PCR studies. RNA isolated from the cell pellet samples that were held in reserve was used as substrate in the real time RT-PCR studies using the cDNA-specific primer sets generated above. This reserved RNA was converted into cDNA and used as substrate for RT-PCR for each of the 68 gene specific primer sets. […] As discussed in the specification, nitrogen depletion/limitation is a known inducer of lipogenesis in oleaginous microorganisms. Fold increase refers to the fold increase in cDNA abundance after 24 hours of culture in low nitrogen medium.

[3] = test system: Prototheca moriformis (UTEX 1435); experiment: Steady state thioesterase mRNA level by real-time RT-PCR (promoter testing, normalized to cd189); settings: low nitrogen medium

Row | Molecule | Fold increased (cDNA abundance) [2] | steady state C. camphora thioesterase mRNA level relative to control (C. reinhardtii beta tubulin promoter) [3] | other results
1 | Cc1ncc(CN)c(N)n1 [PYR, 2-methyl-4-amino-5-(aminomethyl)pyrimidine] | – | – | thiamine pyrophosphate production / growth without thiamine with precursor (Prototheca moriformis): can only produce thiamine pyrophosphate (TPP) if the PYR precursor is provided
2 | O=C(N[C@H](CO)[C@H](O)c1ccc([N+](=O)[O-])cc1)C(Cl)Cl [chloramphenicol] | – | – | propagation of untransformed cells in medium comprising the agent (Dunaliella salina): unable to propagate
3 | CNc1cnn(-c2cccc(C(F)(F)F)c2)c(=O)c1Cl [norflurazon] | – | – | propagation of untransformed cells in medium comprising the agent (Haematococcus pluvialis): unable to propagate
4 | NC[C@@H]1O[C@H](O[C@H]2[C@@H](O)[C@H](O[C@@H]3[C@@H](O)[C@H](N)C[C@H](N)[C@H]3O[C@H]3O[C@H](CO)[C@@H](O)[C@H](O)[C@H]3N)O[C@@H]2CO)[C@H](N)[C@@H](O)[C@@H]1O [paromomycin] | – | – | propagation of untransformed cells in medium comprising the agent (Gonium pectorale): unable to propagate
5 | phleomycin | – | – | propagation of untransformed cells in medium comprising the agent (Dunaliella tertiolecta): unable to be propagated; propagation of untransformed cells in medium comprising the agent [1]: unable to propagate
6 | Aat01-Amino acid transporter 01 promoter/5′UTR: putative nitrogen-regulated promoter/5′UTR, SEQ ID NO: 62 (nucleic acid, listed as Prototheca moriformis) DNA: CGAAGGGGTCTGCATCGATTCGCGCGGTCTGGAGGCCAGCGTGACTGCTCGCGAAAATGCTCTGCCGTGTCGGGCTCTGGCTGGGGCGGCCAGAGATCTCACCGTGCCACACGCAACTGCCGCACTCTGTGCCCGCCACCTGGCGCGCACATGCGACCTCTTCCCCGTCATACCCTCTCCTCATGTGATCTTTCCACACGAGTGACGCAGGTGCGCGGAGTGGAGGGAATCAGGACGTTTTCAAGGTACCTGCTCGAGCCGTACCAACAGCTGCCGCCCGGCAAGGAAGAGATCGAGGCAGAGATTGCCCGGCTGGAGGCCCGGATAACGGAGCTCAAGAGCAAGCTGTCCGAGTGAGACCGCCCAGGTGCACGTGTCGACTCGCTATGACATGTACTCGACACAACATGAGGAATTCATCGAATTTGTAGGAAGCGGGCATTGGTACGGGAGTGGGAAAGCGAAAAAACCTCCCTCCGGCAGTGCCATCTGCCGGAGTCGAACGTTGATAGGGTTCTCGTGACAGGGTGTGACCTCTCAGCCTTGCATCAATTAAACGCTATAGACATTATCAGTAACCGTGAATCCCGCATTGGATGCCACCCGCGCGACCATTGGGGACCTGCATTACAGATCTAGGTGAGATGACAGCGAGGCAACTTCGGCCCGCGGCCCAGCTTGCGGCGCACCAATATTGGTCACGGGAAGCCACACACCGACCATAAATGAATACTTGTAAGCTATGTCAACCGATCAATGGCGTCGAAAGTGTGCCACGAGGATCCATCTGGCGGGGCGGCGTGGCGCACAAGCGCAGTCGCAATTTCTCGGACCCATCTGACCTAGGCCCAGCGCCGCGGGAGAAATCCCCGGCGGGTCCTCCACGCAGTAACCCTAATGAGTATCGAGCGCCGACCATTTACACCATCGCCCCCGAAATCCTTCCGACATTATTATTATCTTTTAGATCTTGGAACAGACTCTGCCAACC | 6.21 | up to four | –
7 | Aat04-Amino acid transporter 04 promoter/5′UTR: putative nitrogen-regulated promoter/5′UTR, SEQ ID NO: 65 (nucleic acid, listed as Prototheca moriformis) DNA: CGCGTGGAGCGGTGCGTGCGGATGCCGCGCGCCTGCCAAGGCCTTTTGTATGCCTGGCCTGGGAAGTTTCCTGACTGAAGCATCTTCAAGATGCTCTCTCACGACCAGCGACACCAACACCGTCACTTTTTGCCCCTCCTGCCGCAGGTGCCACTTTCTACTTTGACGTCTTCTCCAGGCGGTACATTGCGGGACTGAGCGCCAATTCGGCCAAGAACAGCGCTGTCGACTTGAGGAGGCAGGGGTCCGTCGACTCTGCCGAGTGACACGCCTTCGACCCGACTGTACTACGGCCTGCTGAAGAGTGGGTCTCGCCGGCCGGCGTGACCGGCCCTGTGCCCACAATCGACCATCTATTCGCTCCTTGTCATCTGGCGCCGTCAATTGCCCGCGACTTGACGGCAACTGGCTCGATCGAGTCGTATTGAAAAAGCACGTTTTGTCCTACAGGGCCGCGGTCCGTTACCAACGTGGTTCTCGTTAGGTTTTCGTCGGGCGGTGGTGCGCGAACTGTCCGATGCCATCCCGGCAAACCCCAGCAAGGTCGCCAGTCTGGTTCTGACGCAATAGAGTGCGTTTTGGGCCAGTCTAAAAATTCGTCTGGCATGACGTGGCTCCACATCGTACCCGGAGCCTGCCTTGGTAATGTGAGGCACCGGTGCCAACTCCATTATGGCAGGCATCGAGCGCGCAGGTGAGTACATGACCTTCCGTGAATTGGGAAGGCGAGCTTGTGTAACGCCTGCGATCGTGCCAGTGAGGCATCGTAAACTCAAAATATTTTGTAGAAAGTGTCTGATGCCTGGTGAGGCTGCGTAGGGCAAGGGCAAGCCCTTGGCAGATGGGTAATGGGTCCGGACCTCACAACAGCAACCCCGCGTCCCCCTTAGGGCCCCTGAGGCTCGATGGCAGGGCCAGCGAGCCCGCGGCCAAAGGGCGCCATCCCACGGTCGCCCAACGACTCCACGGGTCCTATACCTCATCTTGAATGGCACTAAAAACTATAGAATATCGGGCACTGGTGGGCGTCTGGGGTACAGCTGGCCGAGCGCAGTGGCAAACCCTAGGTCCCGCCTCAAGGGCGATTCCCGGGTCAATGACACGCAAGCAAGATCACATGGCGCGGTCCGCCTCGCGGCTCCACACCCAGGCCCTAGTTTCGCAACCCATAAATATCGCCCCGATACCATCATAAGCCAGCAAATAATTTTTTATCAGAGTTCCAAACCTCCTCAGCTGTGGGAAACCAGCCCACTCTGAACG | 10.95 | up to five | –
8 | Amt02-Ammonium transporter 02 promoter/5′UTR: putative nitrogen-regulated promoter/5′UTR, SEQ ID NO: 61 (nucleic acid, listed as Prototheca moriformis) DNA: TCACCAGCGGACAAAGCACCGGTGTATCAGGTCCGTGTCATCCACTCTAAAGAGCTCGACTACGACCTACTGATGGCCCTAGATTCTTCATCAAAAACGCCTGAGACACTTGCCCAGGATTGAAACTCCCTGAAGGGACCACCAGGGGCCCTGAGTTGTTCCTTCCCCCCGTGGCGAGCTGCCAGCCAGGCTGTACCTGTGATCGGGGCTGGCGGGAAAACAGGCTTCGTGTGCTCAGGTTATGGGAGGTGCAGGACAGCTCATTAAACGCCAACAATCGCACAATTCATGGCAAGCTAATCAGTTATTTCCCATTAACGAGCTATAATTGTCCCAAAATTCTGGTCTACCGGGGGTGATCCTTCGTGTACGGGCCCTTCCCTCAACCCTAGGTATGCGCACATGCGGTCGCCGCGCAACGCGCGCGAGGGCCGAGGGTTTGGGACGGGCCGTCCCGAAATGCAGTTGCACCCGGATGCGTGGCACCTTTTTTGCGATAATTTATGCAATGGACTGCTCTGCAAAATTCTGGCTCTGTCGCCAACCCTAGGATCAGCGGTGTAGGATTTCGTAATCATTCGTCCTGATGGGGAGCTACCGACTGCCCTAGTATCAGCCCGACTGCCTGACGCCAGCGTCCACTTTTGTGCACACATTCCATTCGTGCCCAAGACATTTCATTGTGGTGCGAAGCGTCCCCAGTTACGCTCACCTGATCCCCAACCTCCTTATTGTTCTGTCGACAGAGTGGGCCCAGAGGCCGGTCGCAGCC | 10.76 | up to three | –
